According to US7745465B2, “Method of enhancing cellular production of molecular chaperone, hydroxylamine derivatives useful for enhancing the chaperone production and the preparation thereof” (CytRx Corporation, priority 1995, dated 2010):

Tests used:
GRP-94 = assay: Level of GRP-94 in STZ diabetic rat liver (Western blot); assay type: in vivo
Male Sprague-Dawley rats = assay: Protection against cardiac ischaemia: survival after 5 minutes coronary occlusion and reperfusion; assay type: in vivo, rat; conditions: i.v. 1 mg/kgbw, 5 min. before the occlusion; non-treated control 10
Procedure: Male Sprague-Dawley rats (380-450 g b.w.) were anaesthetized with sodiumpentobarbital (Nembutal 60 mg/kg body weight, i.p.) and artificially ventilated with room air (2 ml/100 g; 54 stroke/minutes) via tracheotomy. The right carotid artery was catheterized and connected to a pressure transducer (BPR-01, Stoelting) for the measurement of systemic arterial blood pressure (BP) by means of a preamplifier (Hg-02, Experimetria). Hydroxylamine derivatives disclosed in Example 5 were administered via the venous cannule to jugular vein (i.v.) and orally (p.o.). Heart rate (HR) was measured by a cardiotachometer (HR-01, Experimetria). The electrocardiogram (ECG standard lead II) was recorded on a devices recorder (MR-12, Medicor) by means of subcutaneous steel needles electrodes. The chest was opened by a left thoracotomy and the heart was exteriorized by a gentle pressure on the right side of the rib cage. A 4-0 silk suture was quickly placed under the main left coronary artery as described by Selye et al. (1960). The heart was carefully replaced in the chest and the animal left to recover. Rectal temperature was monitored and kept constant at 37 C. The experimental protocol was initiated with a 15 minute stabilization period during which the observation of a sustained blood pressure less than 70 mmHg and or the occurrence of anhythmia led to exclusion. Myocardial ischemia was induced with coronary occlusion for 5 minutes and reperfusion allowed for 10 minutes.
During the entire experiment BP, HR and ECG were continuously registered on a multiscriptor (R61-6CH, Medicor). Hydroxylamine derivatives, the tautomeric forms of which are represented by structures (I) and (II), were administered 5 to 60 minutes before the occlusion after i.v. and p.o. treatment, respectively. […]
The mean duration of ventricular tachycardia (VT) and/or ventricular fibrillation (VF) during the first 3 minutes of reperfusion was analyzed by one-way analysis of variance. The incidence of VF was analyzed using a chi-square test. […] The haemodynamic variables were analyzed using Student's “t”-test. The critical level of significance was set at p<0.05. All results were expressed as a means±S.E.M. Drugs were administered i.v. in a dose of 1 mg/kgbw 5 min. before the occlusion.
The hydroxylamine derivatives that are found to be particularly advantageous for protecting an animal against ischemic/reperfusion injury are listed below. Survival (%) indicates the percent of animals survived the effects of 5 minutes coronary occlusion.

[1] = test system: Rats with genetic hypertension; assay: Morphological examination of the thoracic aorta of rats with genetic hypertension; assay type: in vivo, rat; conditions: daily oral treatment (20 mg/kg 8 days or 5 mg/kg 20 days)
Procedure: Rats with genetic hypertension were divided into four groups of four. The groups were treated daily, orally, the first group with physiological saline, the second group with N-[2-hydroxy-3-(1-piperidinyl)]-propoxy-3-pyridine-carboximidoyl-chloride maleate (20 mg/kg) for 8 days, the third group with N-[2-hydroxy-3-(1-piperidinyl)-propoxy]-benzimidoyl-chloride monohydrochloride (5 mg/kg) for 20 days and the fourth group with N-[2-hydroxy-3-(1-piperidinyl)-propoxy]-2-thiophenecarboximidoyl-chloride monohydrochloride (5 mg/kg) for 20 days. Animals were sacrificed, aortas were isolated, snap frozen in liquid nitrogen and were stored at −70° C. till they were used.
The examination was performed according to published methods (Br. J. of Pharmacol., 1995; 115, […]). A 1 mm^2 area of the thoracic aorta was excised and fixed in 2.5% glutaral-dehyde at room temperature. Post fixation was performed in 1% osmium-tetroxide for one hour. The tissue was dehydrated in ethanol and was embedded in Durcupan ACM. Pictures were taken by a Hitachi 7100 electronmicroscope and were evaluated qualitatively.

HSP72 [2] = assay: Heat stress induced HSP72 production in 3T3 cells; assay type: cell-based, mouse; conditions: 10^−5 M
Procedure: (§1) From the applied cells the 3T3 and L-929 mouse fibroblasts were cultured in MEM medium and grew in monolayer, the U-937 human leukemia cells were maintained in RPMI-1640 medium, in suspension culture, while the HeLa human epithelial cells were cultured in DMEM medium and in monolayer form. Cell cultures were maintained as described in example 6.2 (a) with the difference that cells were cultured in the above mentioned culture mediums.
(§2) Experiments were carried out applying stress before and after the drug treatment. Stress was provoked by heat, by chemical agent, HgCl2 treatment. The test compounds were applied in the treatments at the 10^−5 M concentration.
The experiments on 3T3 cell applying heat stress were performed as described in the 6.2. (c) point of example 6, with the difference that stress was induced by a 30 min. exposure at 43° C. temperature and treatment with the test compounds was performed 15 min. before or 100 min. after the heat stress.
Immunodetection was carried out using the HSP72 specific SPA 810 (StressGene) primary and the horse-radish peroxidase conjugated A9044 (Sigma) secondary antibodies. Densitometric evaluation was performed by a LKB Ultrascan XL densitometer.

Hsp72 [3] = assay: Heat stress induced hsp72 expression in rat spleen explant; assay type: cell-based; conditions: 10^−5 M, 15 min. before 43° C. 30 min.
Procedure: These experiments were performed on rat spleen and testicular tissue explants applying heat stress after treatment with the experimental compounds. Experiments on spleen suspension were carried out as follows.
Spleens of CFY rats weighing 200 g were removed aseptically, and were homogenized in 10% fetal bovine serum containing MEM culture medium. The concentration of the cell suspension was adjusted to 50-100 mg/5 ml.
Five ml cell suspension was given into each of the culture dishes of 6 cm of diameter and the explants were incubated for one hour in a 5% CO2 containing humidified air at 37° C. then cultures were treated with the 10^−5 M concentration of the test compounds. After further 15 min. incubation at 37° C. the cultures were exposed to heat shock at 43° C. for 30 min. in an incubator. The amount of the induced hsp72 was measured after a further 6 hours incubation at 37° C.

Hsp72 [4] = assay: Heat stress induced hsp72 expression in rat testicular explant; assay type: cell-based; conditions: 10^−5 M, 15 min. before 43° C. 30 min.
Procedure: Testis of CFY rats weighing of 200 g were removed in sterile conditions and the released testicular tubuli were suspended in 10% fetal bovine serum containing MEM culture medium in that way that five ml suspension contained 50-100 mg tissue. The explants were incubated in 5% CO2 containing humidified air at 37° C. for one hour, then the cultures were treated with 10^−5 M concentration of the tested compounds. After a further incubation for 15 min. at 37° C., explants were exposed to heat shock at 43° C. for 30 min. The amount of the induced hsp72 was measured after a further 6 hours incubation at 37° C.

hsp72 [5] = assay: HgCl2 stress induced hsp72 level in HeLa cells; assay type: cell-based, human; conditions: 10^−5 M, 0.5 μg/ml HgCl2, 6 hours
Procedure: as §1, §2
These experiments were performed on HeLa, human epithelial and U-937, human leukemia cells using HgCl2 to induce stress response. Drug treatment was carried out before cells were exposed to the stress. Test cultures were prepared and treatments were performed as in the experiments with the 3T3 cells. After the drug treatment cells were incubated at 37° C. for 15 min. than all the cultures except two (non stressed control) were exposed to 0.5 μg/ml concentration of HgCl2 and the incubation was followed. The induced amount of hsp72 was measured 6 hours after the exposure to stress.

[6] = treatment 15 min. before 30 min. 43° C. heat stress
[7] = treatment 100 min. after 30 min. 43° C. heat stress

| melting point | Compound | Survival (%) (Male Sprague-Dawley rats) | HSP72 level relative to the stress exposed control (HSP72 [2]; [6]) | Level of hsp72 relative to the stress exposed control (Hsp72 [3]) | Level of hsp72 relative to the stress exposed control (Hsp72 [4]) | further results |
| --- | --- | --- | --- | --- | --- | --- |
|  | insulin: Insulin (Protophane HM inj.) [reference compound] |  |  |  |  | levels of GRP-94 compared to the control state (GRP-94; insulin alone, 1 week and 2-weeks samples): almost doubled; relative amount of GRP-94 (GRP-94; rats diabetic for 4 weeks, insulinized, not treated with the compound): recovery of GRP-94 to the control level |
|  | Cl.OC(CON=C(Cl)c1cccs1)CN1CCCCC1 (stereo not drawn) [Example 1, N-[2-hydroxy-3-(1-piperidinyl)propoxyl]-2-thiophenecarboximidoyl chloride monohydrochloride] | 100% |  |  |  | regeneration of the cells of aorta [1]: facilitated the regeneration of the cells of aorta |
|  | c1cncc(C2=NOCC(CN3CCCCC3)N2)c1 (stereo not drawn) [Example 64, 5,6-Dihydro-5-(1-piperidinyl)methyl-3-(3-pyridyl)-4H-1,2,4-oxadiazine] | 100% | +++ (>100%) | 0 (0 indicates that the treatment altered by ±20% the stress induced hsp72 level in the cells) | + + | HSP72 level relative to the stress exposed control (HSP72 [2]; [7]): 0 (0 indicates that the treatment altered by ±20% the stress induced hsp72 level in the cells) |
|  | O=C(NOCC(O)CN1CCCCC1)Nc1cccc(Cl)c1 (stereo not drawn) [Example 59, N-(3-chlorophenyl)-N′-[2-hydroxy-3-(1-piperidinyl)propoxy]-urea] |  | +++ (>100%) | +++ (>100%) |  |  |
|  | Cl.OC(CON=C(Cl)c1ccccc1)CN1CCCCC1 (stereo not drawn) [N-[2-hydroxy-3-(1-piperidinyl)-propoxy]-benzimidoyl-chloride monohydrochloride] | 100% | + (21-50%) |  | + + + | increase of the stress induced hsp72 level (hsp72 [5]): more than 20%; regeneration of the cells of aorta [1]: facilitated the regeneration of the cells of aorta |
| 69 to 73.5 °C | CCCCCCCCCCCCCCCC(=O)OC(CON=C(Cl)c1cccnc1)CN1CCCCC1.Cl.Cl (stereo not drawn) [Example 23, N-[2-palmitoyloxy-3-(1-piperidinyl)propoxy]-3-pyridinecarboximidoyl chloride dihydrochloride] |  |  |  | + + + |  |
|  | Cl.O=[N+]([O-])c1cccc(C(Cl)=NOCCCN2CCCCC2)c1 [Example 79, O-(3-piperidinopropyl)-3-nitro-benzhydroximyl chloride hydrochloride] | 100% | +++ (>100%) |  | + + | HSP72 level relative to the stress exposed control (HSP72 [2]; [7]): + (21-50%); increase of the stress induced hsp72 level (hsp72 [5]): more than 50% |
|  | CCCCCCCNC(=O)NOCC(O)CN1CCCCC1 (stereo not drawn) [Example 55, N-[2-hydroxy-3-(1-piperidinyl)propoxy]-N′-heptyl-urea] |  |  | +++ (>100%) | + + |  |
| 121 to 128 °C | CCN(CC)CC(O)CON=C(Cl)c1cccc(C(F)(F)F)c1.Cl (stereo not drawn) [Example 12, N-[3-(diethylamino)-2-hydroxypropoxy]-3-trifluoromethyl-benzenecarboximidoyl chloride monohydrochloride] |  |  |  | + (21-50%) |  |
|  | CC(C)(C)NCC(O)CONC(=O)c1cccc(C(F)(F)F)c1 (stereo not drawn) [Example 65] | 78% |  | + (21-50%) | 0 (0 indicates that the treatment altered by ±20% the stress induced hsp72 level in the cells) |  |
| 127 to 130 °C | CN1CCN(CCCONC(=N)c2cccnc2)CC1.Cl |  |  |  |  |  |

| Compound | melting point | Survival (%) (Male Sprague-Dawley rats) | HSP72 level relative to the stress exposed control (HSP72 [2]; [6]) | Level of hsp72 relative to the stress exposed control (Hsp72 [3]) | Level of hsp72 relative to the stress exposed control (Hsp72 [4]) | further results |
| --- | --- | --- | --- | --- | --- | --- |
| O=C(O)/C=C\C(=O)O.O=C(OC(CON=C(Cl)c1cccnc1)CN1CCCCC1)c1ccccc1 (stereo not drawn) [Example 21, N-[2-benzoyloxy-3-(1-piperidinyl)propoxy]-3-pyridinecarboximidoyl chloride (Z)-2-butenedioate (1:1)] | 134 to 136 °C |  |  |  | + + |  |
